Experimental data published in PubChem BioAssay (NCI).
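A five-concentration, 48-hour dose response in 96-well plates underlies each endpoint, interpolated linearly between surrounding concentrations. GI50 = concentration required for 50% inhibition of growth. TGI marks complete inhibition of growth.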

Assays:
Assay in all cases: NCI tumour cell line growth inhibition, 48 h
CAKI-1 renal = tested on: CAKI-1 renal
OVCAR-3 ovarian = tested on: OVCAR-3 ovarian
NCI-H226 lung = tested on: NCI-H226 lung
PC-3 prostate = tested on: PC-3 prostate
RXF 393 renal = tested on: RXF 393 renal
K-562 leukemia = tested on: K-562 leukemia
SF-295 CNS = tested on: SF-295 CNS
HL-60(TB) leukemia = tested on: HL-60(TB) leukemia
MDA-MB-435 = tested on: MDA-MB-435
SW-620 colon = tested on: SW-620 colon
OVCAR-4 ovarian = tested on: OVCAR-4 ovarian
HCT-116 colon = tested on: HCT-116 colon
MCF7 breast = tested on: MCF7 breast
SNB-75 CNS = tested on: SNB-75 CNS
HOP-92 NSCLC = tested on: HOP-92 NSCLC
SN12C renal = tested on: SN12C renal
UACC-257 melanoma = tested on: UACC-257 melanoma
LOX IMVI melanoma = tested on: LOX IMVI melanoma
HS 578T breast = tested on: HS 578T breast
UO-31 renal = tested on: UO-31 renal
OVCAR-5 ovarian = tested on: OVCAR-5 ovarian
DU-145 prostate = tested on: DU-145 prostate
CCRF-CEM leukemia = tested on: CCRF-CEM leukemia
TK-10 renal = tested on: TK-10 renal
SK-OV-3 ovarian = tested on: SK-OV-3 ovarian
SK-MEL-2 melanoma = tested on: SK-MEL-2 melanoma
MDA-MB-231 breast = tested on: MDA-MB-231 breast
M14 melanoma = tested on: M14 melanoma
U251 CNS = tested on: U251 CNS
SNB-19 CNS = tested on: SNB-19 CNS
EKVX NSCLC = tested on: EKVX NSCLC
HT29 colon = tested on: HT29 colon
T-47D breast = tested on: T-47D breast
A498 renal = tested on: A498 renal
HCC-2998 colon = tested on: HCC-2998 colon
NCI/ADR-RES ovarian = tested on: NCI/ADR-RES ovarian
NCI-H23 lung = tested on: NCI-H23 lung
COLO 205 colon = tested on: COLO 205 colon
MOLT-4 leukemia = tested on: MOLT-4 leukemia
BT-549 breast = tested on: BT-549 breast
IGROV1 ovarian = tested on: IGROV1 ovarian
HOP-62 NSCLC = tested on: HOP-62 NSCLC
SK-MEL-5 melanoma = tested on: SK-MEL-5 melanoma
HCT-15 colon = tested on: HCT-15 colon
RPMI-8226 leukemia = tested on: RPMI-8226 leukemia
A549 NSCLC = tested on: A549 NSCLC
SF-539 CNS = tested on: SF-539 CNS
KM12 colon = tested on: KM12 colon
UACC-62 melanoma = tested on: UACC-62 melanoma
NCI-H522 lung = tested on: NCI-H522 lung
ACHN renal = tested on: ACHN renal
NCI-H460 lung = tested on: NCI-H460 lung
SK-MEL-28 melanoma = tested on: SK-MEL-28 melanoma
786-0 renal = tested on: 786-0 renal
SF-268 CNS = tested on: SF-268 CNS
OVCAR-8 ovarian = tested on: OVCAR-8 ovarian
MALME-3M melanoma = tested on: MALME-3M melanoma

## COC(=O)CCC(=O)c1c(C)[nH]c(/C=C2\N=C(c3ccc[nH]3)C=C2OC)c1C
CAKI-1 renal
  GI50: 869 nM
  TGI: 2950 nM
OVCAR-3 ovarian
  GI50: 353 nM
  TGI: 1700 nM
NCI-H226 lung
  GI50: 1080 nM
  TGI: 3270 nM
PC-3 prostate
  GI50: 647 nM
  TGI: 2140 nM
RXF 393 renal
  GI50: 1460 nM
  TGI: 4030 nM
K-562 leukemia
  GI50: 1240 nM
  TGI: 3180 nM
SF-295 CNS
  GI50: 1620 nM
  TGI: 4080 nM
HL-60(TB) leukemia
  GI50: 602 nM
  TGI: 2830 nM
MDA-MB-435
  GI50: 426 nM
  TGI: 1630 nM
SW-620 colon
  GI50: 318 nM
  TGI: 1320 nM
OVCAR-4 ovarian
  GI50: 2120 nM
  TGI: 17000 nM
HCT-116 colon
  GI50: 257 nM
MCF7 breast
  GI50: 567 nM
  TGI: 2030 nM
SNB-75 CNS
  GI50: 971 nM
  TGI: 3510 nM
HOP-92 NSCLC
  GI50: 486 nM
  TGI: 1550 nM
SN12C renal
  GI50: 1450 nM
  TGI: 5380 nM
UACC-257 melanoma
  GI50: 2270 nM
  TGI: 6370 nM
LOX IMVI melanoma
  GI50: 66.6 nM
  TGI: 261 nM
HS 578T breast
  GI50: 1350 nM
  TGI: 4070 nM
UO-31 renal
  GI50: 279 nM
  TGI: 866 nM
OVCAR-5 ovarian
  GI50: 1480 nM
  TGI: 5520 nM
DU-145 prostate
  GI50: 344 nM
  TGI: 1800 nM
CCRF-CEM leukemia
  GI50: 199 nM
  TGI: 2370 nM
TK-10 renal
  GI50: 1180 nM
  TGI: 7740 nM
SK-OV-3 ovarian
  GI50: 6160 nM
  TGI: 13800 nM
SK-MEL-2 melanoma
  GI50: 349 nM
  TGI: 1740 nM
MDA-MB-231 breast
  GI50: 385 nM
  TGI: 2640 nM
M14 melanoma
  GI50: 431 nM
  TGI: 1910 nM
U251 CNS
  GI50: 1080 nM
  TGI: 3200 nM
SNB-19 CNS
  GI50: 3200 nM
  TGI: 14200 nM
EKVX NSCLC
  GI50: 1100 nM
  TGI: 2940 nM
HT29 colon
  GI50: 73.7 nM
  TGI: 1480 nM
T-47D breast
  GI50: 931 nM
  TGI: 4090 nM
A498 renal
  GI50: 7860 nM
  TGI: 20700 nM
HCC-2998 colon
  GI50: 1410 nM
  TGI: 5840 nM
NCI/ADR-RES ovarian
  GI50: 728 nM
  TGI: 3660 nM
NCI-H23 lung
  GI50: 1790 nM
  TGI: 4700 nM
COLO 205 colon
  GI50: 1040 nM
  TGI: 3290 nM
MOLT-4 leukemia
  GI50: 405 nM
  TGI: 1850 nM
BT-549 breast
  GI50: 587 nM
  TGI: 2170 nM
IGROV1 ovarian
  GI50: 365 nM
  TGI: 1600 nM
HOP-62 NSCLC
  GI50: 850 nM
  TGI: 2330 nM
SK-MEL-5 melanoma
  GI50: 567 nM
  TGI: 1710 nM
HCT-15 colon
  GI50: 292 nM
  TGI: 1890 nM
RPMI-8226 leukemia
  GI50: 360 nM
  TGI: 1870 nM
A549 NSCLC
  GI50: 3080 nM
  TGI: 10800 nM
SF-539 CNS
  GI50: 1180 nM
  TGI: 3030 nM
KM12 colon
  GI50: 360 nM
  TGI: 1720 nM
UACC-62 melanoma
  GI50: 1370 nM
  TGI: 3490 nM
NCI-H522 lung
  GI50: 1130 nM
  TGI: 2860 nM
ACHN renal
  GI50: 783 nM
  TGI: 4180 nM
NCI-H460 lung
  GI50: 6860 nM
  TGI: 40900 nM
SK-MEL-28 melanoma
  GI50: 1270 nM
  TGI: 3180 nM
786-0 renal
  GI50: 552 nM
  TGI: 1820 nM
SF-268 CNS
  GI50: 1030 nM
  TGI: 3100 nM
OVCAR-8 ovarian
  GI50: 754 nM
  TGI: 2230 nM
MALME-3M melanoma
  GI50: 1490 nM
  TGI: 3470 nM
